Assay results published in patent US20260365698A1, “STAPLED PEPTIDES FOR SENSITIZATION OF CANCER TO TREATMENT” (Purdue Research Foundation, priority 2022, published 2026).
“Also recorded” adds a separate entry of the source. Bridge positions count the residues as written; N and C are the ends. Square brackets hold non-standard residues; d marks the D form. Peptide text beside a SMILES is read from it. S5 = C=CCCC[C@](C)(N)C(=O)O

Assays:
HEK-293T cells = test: Toxicity to the cells in the luciferase assay; format: cell-based; conditions: 16 hours, listed as NIS
Experimental: The peptides from Example 1 were screened for Nrf2 inhibition using a previously developed dual luciferase assay. Ren et al., Brusatol enhances the efficacy of chemotherapy by inhibiting the Nrf2-mediated defense mechanism, Biological Sciences 108(4): 1433-1438 (2011). Briefly, HEK-293T cells stably expressing ARE-firefly luciferase and TK-Renilla luciferase were used. The cells were treated with different concentrations of compounds N1 (SEQ ID NO: 3), N1 S (SEQ ID NO: 6), N2 (SEQ ID NO: 4), N2S (SEQ ID NO: 7), N3 (SEQ ID NO: 5), and N3S (SEQ ID NO: 8) for 16 hours. The cells were lysed in 1× passive lysis buffer, and both firefly luciferase and Renilla luciferase activities were measured using the Promega Dual-Luciferase™ Reporter (DLR™) Assay System and a luminometer (Turner Biosystems 20/20^n Luminometer). The samples were in triplicate for all concentrations of compounds (n=3).

Nrf2/MafG heterodimer = Nrf2/MafG heterodimer (Homo sapiens, UniProt O15525); test: Split luciferase assay with purified MafG and Nrf2; format: biochemical; conditions: in vitro, FIG. 6A; listed as NIS
Sequence of Nrf2/MafG heterodimer (O15525 whole entry, one chain of several): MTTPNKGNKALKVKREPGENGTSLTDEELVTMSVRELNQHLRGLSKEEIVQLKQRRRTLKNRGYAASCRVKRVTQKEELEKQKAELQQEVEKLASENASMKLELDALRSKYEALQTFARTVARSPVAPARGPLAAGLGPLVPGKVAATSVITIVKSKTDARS
From the text: Data shown are from three technical replicates with standard error. The data are representative of three independent experiments. *p<0.05, **p<0.01, ***p<0.001, student's T-test compared to dimethyl sulfoxide (DMSO).

[1] = tested on: A549 non-small cell lung cancer cells; test: MTT assay / live cell growth, combination with cisplatin; format: cell-based
Experimental: Percent dead in red color indicates higher percentage of death. Data are representative of three independent replicates.
The ability of compound N1S to increase sensitivity to chemotherapeutics was examined. A549 non-small cell lung cancer cells were seeded into a Corning® 96-Well Cell Culture Plate (clear, sterile, non-treated) and incubated for 24 hours. The cells were treated with cisplatin alone, compound NIS alone, or in combination. Immediately following treatment, the cells were placed into an Incucyte® S3 Live-Cell Analysis Instrument (Sartorius AG, Gottingen, Germany) and imaged every two hours for three days. The Incucyte® S3's analytical software was used to calculate cell confluency at each time point. Synergy was determined using the Chou-Talalay method.
Additionally, an MTT assay was performed on the plate of cells from the Incucyte® study, and a separate, identical plate of cells was incubated for 24 hours. MTT reagent (20 μL of 5 mM stock) was added to each well and incubated for three hours at 37 °C. Following incubation, the plate was spun down at 2,500 rpm for five minutes at room temperature and then aspirated to remove the media. […] The absorbance of each well was measured at 570 nm using a plate reader (Molecular Devices SpectraMax® iD5 Multi-Mode Microplate Reader). […]

CC[C@H](C)[C@H](NC(C)=O)C(=O)N[C@H](C(=O)N[C@@H](CCC(=O)O)C(=O)N[C@@H](CC(C)C)C(=O)N[C@@H](CCC(=O)O)C(=O)N[C@@]1(C)CCCC=CCCC[C@@](C)(C(=O)N[C@@H](CC(C)C)C(=O)N[C@@H](CCCCN)C(=O)N[C@@H](CC(=O)O)C(=O)N[C@@H](CCC(=O)O)C(=O)N[C@@H](CCCCN)C(=O)N[C@@H](CCC(=O)O)C(N)=O)NC(=O)[C@H](CC(=O)O)NC(=O)[C@H](CC(C)C)NC(=O)[C@H](CC(=O)O)NC1=O)C(C)C [N1S] (Ac-IVELE[S5]DLD[S5]LKDEKE-NH2; staple 6-10)
toxicity to the cells (HEK-293T cells): no toxicity; also recorded: without showing toxicity
inhibition of dimerization of Nrf2 with MafG (Nrf2/MafG heterodimer): inhibiting dimerization of Nrf2 with MagF in vitro in a dose-dependent manner; also recorded: inhibits its dimerization with Nrf2
growth compared to either treatment alone ([1]; 50 μM N1S combined with 6 μM cisplatin): greatly reduced levels of growth
sensitization of cancer cell lines to chemotherapeutics ([1]; combination with cisplatin): can greatly sensitize cancer cell lines to chemotherapeutics
